For 34 molecules, IC50 results are on record in US9637472B2, “Substituted 6,5-fused bicyclic heteroaryl compounds” (Epizyme, Inc., priority 2011, dated 2017).

Where only a bound is given, the exact number is not on record here.

For orientation: IC50 means the point on the concentration scale where inhibition reaches its midpoint.

This experiment deals with EZH2 (Homo sapiens (Human), UniProt Q15910). The experiment is described as follows: PRC2 enzyme assay on peptide substrates. It is filed as biochemical. As to conditions: PRC2 enzyme assays on peptide substrates; 4 nM enzyme, 30 min preincubation at 25° C.; read-out: EZH2 IC50. The text has this: General Materials. S-adenosylmethionine (SAM), S-adenosylhomocyteine (SAH), bicine, KCl, Tween20, dimethylsulfoxide (DMSO) and bovine skin gelatin (BSG) were purchased from Sigma-Aldrich at the highest level of purity possible. Dithiothreitol (DTT) was purchased from EMD. ^3H-SAM was purchased from American Radiolabeled Chemicals with a specific activity of 80 Ci/mmol. 384-well streptavidin Flashplates were purchased from PerkinElmer.
Sequence of EZH2 (Q15910 other isoform, or with tags, fused parts or gaps): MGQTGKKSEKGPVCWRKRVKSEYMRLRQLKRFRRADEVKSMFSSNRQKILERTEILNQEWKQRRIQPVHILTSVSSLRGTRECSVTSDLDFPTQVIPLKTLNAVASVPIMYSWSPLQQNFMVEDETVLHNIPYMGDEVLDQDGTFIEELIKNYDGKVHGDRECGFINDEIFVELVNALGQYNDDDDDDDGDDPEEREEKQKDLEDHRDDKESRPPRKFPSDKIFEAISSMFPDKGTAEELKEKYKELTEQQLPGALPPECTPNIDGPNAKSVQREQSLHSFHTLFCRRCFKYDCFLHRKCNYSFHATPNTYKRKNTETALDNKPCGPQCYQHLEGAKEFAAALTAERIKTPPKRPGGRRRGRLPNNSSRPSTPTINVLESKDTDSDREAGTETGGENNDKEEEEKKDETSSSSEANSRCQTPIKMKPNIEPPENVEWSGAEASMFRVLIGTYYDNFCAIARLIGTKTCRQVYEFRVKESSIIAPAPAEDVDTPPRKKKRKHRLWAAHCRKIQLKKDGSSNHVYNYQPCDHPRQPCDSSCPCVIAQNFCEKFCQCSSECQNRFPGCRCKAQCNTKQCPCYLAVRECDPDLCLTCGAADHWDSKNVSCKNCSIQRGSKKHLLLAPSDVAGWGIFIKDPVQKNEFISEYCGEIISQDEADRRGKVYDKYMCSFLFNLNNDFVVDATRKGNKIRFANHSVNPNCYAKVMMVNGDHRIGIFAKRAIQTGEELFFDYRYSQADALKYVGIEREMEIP
Sequence of EZH2 (O75530 whole entry partner): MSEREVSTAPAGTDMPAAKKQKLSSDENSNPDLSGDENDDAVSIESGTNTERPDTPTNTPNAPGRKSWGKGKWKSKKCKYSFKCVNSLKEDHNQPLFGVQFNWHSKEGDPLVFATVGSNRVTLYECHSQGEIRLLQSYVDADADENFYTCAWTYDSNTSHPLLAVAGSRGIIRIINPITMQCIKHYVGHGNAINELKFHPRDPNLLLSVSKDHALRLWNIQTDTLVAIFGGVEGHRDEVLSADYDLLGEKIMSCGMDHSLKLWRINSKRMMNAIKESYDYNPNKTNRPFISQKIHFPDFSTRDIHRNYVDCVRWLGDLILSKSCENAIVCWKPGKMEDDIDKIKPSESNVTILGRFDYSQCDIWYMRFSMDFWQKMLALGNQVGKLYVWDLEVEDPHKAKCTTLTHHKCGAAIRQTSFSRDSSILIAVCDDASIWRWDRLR
Sequence of EZH2 (Q15022 whole entry partner): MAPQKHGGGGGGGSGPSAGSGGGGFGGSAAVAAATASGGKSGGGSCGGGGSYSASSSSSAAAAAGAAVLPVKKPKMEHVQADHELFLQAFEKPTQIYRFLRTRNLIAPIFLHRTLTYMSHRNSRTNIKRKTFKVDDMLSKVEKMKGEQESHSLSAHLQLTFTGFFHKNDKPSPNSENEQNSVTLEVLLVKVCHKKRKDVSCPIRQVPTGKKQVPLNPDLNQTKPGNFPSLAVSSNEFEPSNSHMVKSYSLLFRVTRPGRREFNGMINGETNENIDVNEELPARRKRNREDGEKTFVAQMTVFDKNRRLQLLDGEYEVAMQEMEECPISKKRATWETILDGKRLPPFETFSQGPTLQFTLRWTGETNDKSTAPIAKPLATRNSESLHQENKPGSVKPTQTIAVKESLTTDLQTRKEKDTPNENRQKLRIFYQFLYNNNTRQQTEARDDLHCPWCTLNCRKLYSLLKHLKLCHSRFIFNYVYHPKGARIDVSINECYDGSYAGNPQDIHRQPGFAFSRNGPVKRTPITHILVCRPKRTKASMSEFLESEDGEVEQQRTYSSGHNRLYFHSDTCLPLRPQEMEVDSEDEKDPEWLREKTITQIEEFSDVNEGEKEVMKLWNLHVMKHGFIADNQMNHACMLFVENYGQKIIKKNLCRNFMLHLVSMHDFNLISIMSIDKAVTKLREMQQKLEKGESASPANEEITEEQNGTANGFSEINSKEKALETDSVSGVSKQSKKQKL
Sequence of EZH2 (Q09028 whole entry partner): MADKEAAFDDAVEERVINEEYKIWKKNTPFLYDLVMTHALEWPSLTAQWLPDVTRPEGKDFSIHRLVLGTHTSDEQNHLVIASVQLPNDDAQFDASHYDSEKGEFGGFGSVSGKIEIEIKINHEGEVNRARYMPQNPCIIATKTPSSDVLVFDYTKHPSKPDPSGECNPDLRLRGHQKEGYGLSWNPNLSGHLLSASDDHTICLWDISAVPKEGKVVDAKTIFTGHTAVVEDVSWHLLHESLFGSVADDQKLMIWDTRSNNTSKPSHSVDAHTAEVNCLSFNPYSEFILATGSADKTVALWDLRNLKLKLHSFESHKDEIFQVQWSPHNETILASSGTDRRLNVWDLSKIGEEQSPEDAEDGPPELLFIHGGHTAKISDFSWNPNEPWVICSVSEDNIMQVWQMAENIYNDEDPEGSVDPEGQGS
Substrates. […] The sequences are listed below.
Recombinant PRC2 Enzymes. Human PRC2 enzymes were purified as 4-component enzyme complexes co-expressed in Spodoptera frugiperda (sf9) cells using a baculovirus expression system. The subunits expressed were wild-type EZH2 (NM_004456) or EZH2 Y641F, N, H, S or C mutants generated from the wild-type EZH2 construct, EED (NM_003797), Suz12 (NM_015355) and RbAp48 (NM_005610). The EED subunit contained an N-terminal FLAG tag that was used to purify the entire 4-component complex from sf9 cell lysates.
General Procedure for PRC2 Enzyme Assays on Peptide Substrates. The assays were all performed in a buffer consisting of 20 mM bicine (pH=7.6), 0.5 mM DTT, 0.005% BSG and 0.002% Tween20, prepared on the day of use. […] DMSO (1 μL) was added to columns 11, 12, 23, 24, rows A-H for the maximum signal control, and SAH, a known product and inhibitor of PRC2 (1 μL) was added to columns 11, 12, 23, 24, rows I-P for the minimum signal control. A cocktail (40 μL) containing the wild-type PRC2 enzyme and H3K27me0 peptide or any of the Y641 mutant enzymes and H3K27me2 peptide was added by Multidrop Combi (Thermo). The compounds were allowed to incubate with PRC2 for 30 min at 25° C., then a cocktail (10 μL) containing a mixture of non-radioactive and ^3H-SAM was added to initiate the reaction (final volume=51 μL). […] The assays were stopped by the addition of non-radioactive SAM (10 μL) to a final concentration of 600 μM, which dilutes the ^3H-SAM to a level where its incorporation into the peptide substrate is no longer detectable. 50 μL of the reaction in the 384-well polypropylene plate was then transferred to a 384-well Flashplate and the biotinylated peptides were allowed to bind to the streptavidin surface for at least 1 h before being washed three times with 0.1% Tween20 in a Biotek ELx405 plate washer. The plates were then read in a PerkinElmer TopCount platereader to measure the quantity of ^3H-labeled peptide bound to the Flashplate surface, measured as disintegrations per minute (dpm) or alternatively, referred to as counts per minute (cpm).
Where dpm=disintegrations per minute, cmpd=signal in assay well, and min and max are the respective minimum and maximum signal controls.
Where top and bottom are the normally allowed to float, but may be fixed at 100 or 0 respectively in a 3-parameter fit. The Hill Coefficient normally allowed to float but may also be fixed at 1 in a 3-parameter fit. Y is the % inhibition and X is the compound concentration.
As for “1-cyclopentyl-N-((4,6-dimethyl-2-oxo-1,2-dihydropyridin-3-yl)methyl)-6-(2,2,6,6-tetramethylpiperidin-4-yl)-1H-pyrazolo[3,4-b]pyridine-4-carboxamide [Compound B-4]”, the IC50 is less than 300 nM. The result for “1-cyclopentyl-N-((4,6-dimethyl-2-oxo-1,2-dihydropyridin-3-yl)methyl)-6-(2-ethoxy-4-((4-ethylpiperazin-1-yl)sulfonyl)phenyl)-1H-indazole-4-carboxamide [Compound C-14]” reads less than 300 nM; that for `Cc1cc(C)c(CNC(=O)c2cc(-c3ccc(CN4CCOCC4)cc3)nc3c2cnn3C2CCCC2)c(=O)[nH]1` [Compound A-1, 1-cyclopentyl-N-((4,6-dimethyl-2-oxo-1,2-dihydropyridin-3-yl)methyl)-6-(4-(morpholinomethyl)phenyl)-1H-pyrazolo[3,4-b]pyridine-4-carboxamide], less than 300 nM; that for `Cc1cc(C)c(CNC(=O)c2cc(-c3cccc(CN(C)C)c3)nc3c2cnn3C(C)C)c(=O)[nH]1` [Compound A-3, N-((4,6-dimethyl-2-oxo-1,2-dihydropyridin-3-yl)methyl)-6-(3-((dimethylamino)methyl)phenyl)-1-isopropyl-1H-pyrazolo[3,4-b]pyridine-4-carboxamide], 300 to 1000 nM. The result for `Cc1cc(C)c(CNC(=O)c2cc(-c3cnc(N)nc3)nc3c2cnn3C(C)C)c(=O)[nH]1` [Compound A-4, 6-(2-aminopyrimidin-5-yl)-N-((4,6-dimethyl-2-oxo-1,2-dihydropyridin-3-yl)methyl)-1-isopropyl-1H-pyrazolo[3,4-b]pyridine-4-carboxamide] reads 300 to 1000 nM.

On to `Cc1cc(C)c(CNC(=O)c2cc(-c3ccc(N4CCN(C(=O)OC(C)(C)C)CC4)nc3)nc3c2cnn3C(C)C)c(=O)[nH]1` [Compound A-6, tert-butyl 4-(5-(4-(((4,6-dimethyl-2-oxo-1,2-dihydropyridin-3-yl)methyl)carbamoyl)-1-isopropyl-1H-pyrazolo[3,4-b]pyridin-6-yl)pyridin-2-yl)piperazine-1-carboxylate], for which the IC50 lay in the range of 300 to 1000 nM.

For `Cc1cc(C)c(CNC(=O)c2cc(-c3ccc(N4CCNCC4)cc3)nc3c2cnn3C(C)C)c(=O)[nH]1` [Compound A-7, N-((4,6-dimethyl-2-oxo-1,2-dihydropyridin-3-yl)methyl)-1-isopropyl-6-(4-(piperazin-1-yl)phenyl)-1H-pyrazolo[3,4-b]pyridine-4-carboxamide], the IC50 was less than 300 nM. The result for `Cc1cc(C)c(CNC(=O)c2cc(-c3ccc(N4CCNCC4)nc3)nc3c2cnn3C(C)C)c(=O)[nH]1` [Compound A-10, N-((4,6-dimethyl-2-oxo-1,2-dihydropyridin-3-yl)methyl)-1-isopropyl-6-(6-(piperazin-1-yl)pyridin-3-yl)-1H-pyrazolo[3,4-b]pyridine-4-carboxamide] reads less than 300 nM; that for `Cc1cc(C)c(CNC(=O)c2cc(-c3cccc(C(=O)NCCCN(C)C)c3)nc3c2cnn3C(C)C)c(=O)[nH]1` [Compound A-13, N-((4,6-dimethyl-2-oxo-1,2-dihydropyridin-3-yl)methyl)-6-(3-((3-(dimethylamino)propyl)carbamoyl)phenyl)-1-isopropyl-1H-pyrazolo[3,4-b]pyridine-4-carboxamide], less than 300 nM; that for `Cc1cc(C)c(CNC(=O)c2cc(-c3ccc(CN)cc3)nc3c2cnn3C(C)C)c(=O)[nH]1` [Compound A-14, 6-(4-(aminomethyl)phenyl)-N-((4,6-dimethyl-2-oxo-1,2-dihydropyridin-3-yl)methyl)-1-isopropyl-1H-pyrazolo[3,4-b]pyridine-4-carboxamide], less than 300 nM. Turning to `Cc1cc(C)c(CNC(=O)c2cc(-c3ccc(CN(C)CCCN(C)C)cc3)nc3c2cnn3C(C)C)c(=O)[nH]1` [Compound A-15, N-((4,6-dimethyl-2-oxo-1,2-dihydropyridin-3-yl)methyl)-6-(4-(((3-(dimethylamino)propyl)(methyl)amino)methyl)phenyl)-1-isopropyl-1H-pyrazolo[3,4-b]pyridine-4-carboxamide], the IC50 was less than 300 nM. The result for `Cc1cc(C)c(CNC(=O)c2cc(-c3ccc(CN4CCOCC4)cc3)nc3c2c(Br)nn3C(C)C)c(=O)[nH]1` [Compound A-17, 3-bromo-N-((4,6-dimethyl-2-oxo-1,2-dihydropyridin-3-yl)methyl)-1-isopropyl-6-(4-(morpholinomethyl)phenyl)-1H-pyrazolo[3,4-b]pyridine-4-carboxamide] reads less than 300 nM. On to `Cc1cc(C)c(CNC(=O)c2cc(-c3ccc(C(=O)NCCN(C)C)cc3)nc3c2cnn3C(C)C)c(=O)[nH]1` [Compound A-18], for which the IC50 is less than 300 nM. Under `Cc1cc(C)c(CNC(=O)c2cc(-c3ccc(CN(C)CCN4CCCC4)cc3)nc3c2cnn3C(C)C)c(=O)[nH]1` [Compound A-21] stands 300 to 1000 nM; under `Cc1cc(C)c(CNC(=O)c2cc(-c3ccc(CN(C)C)cc3)nc3c2cnn3C(C)C)c(=O)[nH]1` [Compound A-22], 300 to 1000 nM; under `Cc1cc(C)c(CNC(=O)c2cc(-c3cccc(CNCCN)c3)nc3c2cnn3C(C)C)c(=O)[nH]1` [Compound A-26], 300 to 1000 nM. Turning to `Cc1cc(C)c(CNC(=O)c2cc(-c3ccnc(N4CCN(C(=O)OC(C)(C)C)CC4)c3)nc3c2cnn3C(C)C)c(=O)[nH]1` [Compound A-27], the IC50 lay in the range of 300 to 1000 nM. The result for `Cc1cc(C)c(CNC(=O)c2cc(-c3cccc(CN)c3)nc3c2cnn3C(C)C)c(=O)[nH]1` [Compound A-32] reads 300 to 1000 nM. Under `Cc1cc(C)c(CNC(=O)c2cc(-c3ccc(CN(C)CCN)cc3)nc3c2cnn3C(C)C)c(=O)[nH]1` [Compound A-33] stands 300 to 1000 nM; under `Cc1cc(C)c(CNC(=O)c2cc(-c3cccc(CN(C)CCN)c3)nc3c2cnn3C(C)C)c(=O)[nH]1` [Compound A-34], 300 to 1000 nM. Under `Cc1cc(C)c(CNC(=O)c2cc(-c3ccnc(N4CCNCC4)c3)nc3c2cnn3C(C)C)c(=O)[nH]1` [Compound A-37] stands 300 to 1000 nM.

Regarding `Cc1cc(C)c(CNC(=O)c2cc(-c3cccc(CN(C)CCN4CCCC4)c3)cc3c2cnn3C(C)C)c(=O)[nH]1` [Compound A-41], the IC50 lay in the range of 300 to 1000 nM. The result for `Cc1cc(CN(C)C)c(CNC(=O)c2cc(-c3ccc(CN4CCOCC4)cc3)nc3c2cnn3C(C)C)c(=O)[nH]1` [Compound A-43] reads 300 to 1000 nM. The result for `Cc1cc(C)c(CNC(=O)c2cc(-c3ccc(N4CCN(C(=O)OC(C)(C)C)CC4)nc3)nc3c2cnn3C(C)C)c(=O)[nH]1` [Compound A-44] reads 300 to 1000 nM; that for `Cc1cc(C)c(CNC(=O)c2c(Cl)c(-c3ccc4c(c3)OCCO4)cc3c2cnn3C(C)C)c(=O)[nH]1` [Compound A-47], 300 to 1000 nM; that for `Cc1cc(C)c(CNC(=O)c2cc(-c3cnn(C)c3)nc3c2cnn3C(C)C)c(=O)[nH]1` [Compound A-48], 1000 to 3000 nM. For `Cc1cc(C)c(CNC(=O)c2cc(-c3cn[nH]c3)nc3c2cnn3C(C)C)c(=O)[nH]1` [Compound A-49], the IC50 is 1000 to 3000 nM. Under `Cc1cc(C)c(CNC(=O)c2cc(-c3ccc(N)nc3)nc3c2cnn3C(C)C)c(=O)[nH]1` [Compound A-50] stands 1000 to 3000 nM; under `Cc1cc(C)c(CNC(=O)c2cc(-c3ccc(N4CCN(C(=O)OC(C)(C)C)CC4)cc3)nc3c2cnn3C(C)C)c(=O)[nH]1` [Compound A-51], 1000 to 3000 nM; under `Cc1cc(C)c(CNC(=O)c2cc(-c3ccc(C(=O)O)cc3)nc3c2cnn3C(C)C)c(=O)[nH]1` [Compound A-53], 1000 to 3000 nM. The result for `Cc1cc(C)c(CNC(=O)c2cc(-c3cccc(CN4CCOCC4)c3)nc3c2cnn3C(C)C)c(=O)[nH]1` [Compound A-54] reads 1000 to 3000 nM. `CNCCN(C)Cc1cccc(-c2cc(C(=O)NCc3c(C)cc(C)[nH]c3=O)c3c(n2)N(C(C)C)NC3)c1` [Compound A-58]: the IC50 lay in the range of 1000 to 3000 nM. In the case of `Cc1ccc(CNC(=O)c2cc(-c3ccc(N4CCN(C)CC4)nc3)nc3c2cnn3C(C)C)c(=O)[nH]1` [Compound A-60], the IC50 is 1000 to 3000 nM. The result for `Cc1cc(C)c(CNC(=O)c2cc(-c3cccnc3N3CCN(C)CC3)nc3c2cnn3C(C)C)c(=O)[nH]1` [Compound A-63] reads 1000 to 3000 nM.
